pIC50: −log10 of the molar value. Activity calls are given as the source filed them. No cut-off for these calls is given here.
Legend:
in vivo [1] = settings: Sprague-Dawley, rat, po, 15 mg/kg
Description: AUC (0 to infinity) in Sprague-Dawley rat at 15 mg/kg, po administered via gavage and measured after 0.5 to 168 hrs by LC-MS analysis

[2] = Toxicity in female BALB/c mouse xenografted with human MCF7 cells assessed as change in hemoglobin level at 5 mg/kg, iv measured after 14 days; format: organism-based; settings: in vivo, 336 h, time 14 day
[3] = Toxicity in female BALB/c mouse xenografted with human MCF7 cells assessed as change in ALT level at 5 mg/kg, iv measured after 14 days with 660 nm 0.4 W/cm2 light irradiation for 5 mins at 4 hrs of incubation time; format: organism-based; settings: in vivo, 336 h, time 14 day
[4] = Toxicity in female BALB/c mouse xenografted with human MCF7 cells assessed as change in creatinine level at 5 mg/kg, iv measured after 14 days; format: organism-based; settings: in vivo, 336 h, time 14 day
MCF7 [5] = experiment: cells; settings: Homo sapiens, MCF7, light or radiation study
Description: Antiproliferative activity against human MCF7 cells assessed as inhibition of cell proliferation incubated for 48 hrs with 660 nm 0.4 W/cm2 light irradiation for 1 min at 6th hr of incubation time by MTT assay

MCF7 [6] = experiment: cells; settings: Homo sapiens, MCF7, light or radiation study; remark: listed apart in the source
Description: Antiproliferative activity against human MCF7 cells assessed as inhibition of cell proliferation incubated for 48 hrs with 660 nm 0.4 W/cm2 light irradiation for 3 min at 6th hr of incubation time by MTT assay

[7] = Drug uptake in human MCF7 cell nucleus assessed as increase in red fluorescence at 1 uM incubated for 6 hrs by fluorescence imaging analysis; format: ADME, subcellular; settings: mcf7, 6 h
[8] = Toxicity in female BALB/c mouse xenografted with human MCF7 cells assessed as change in AST level at 5 mg/kg, iv measured after 14 days; format: organism-based; settings: in vivo, 336 h, time 14 day
[9] = Induction of ROS generation in water assessed as decrease in ABDA absorption peak at 1 uM irradiated with 660 nm 0.2 to 1.5 W/cm2 light for 5 mins by ABDA probe based UV-vis absorption spectra analysis; format: functional
[10] = Drug uptake in female BALB/c mouse kidney xenografted with human MCF7 cells at 5 mg/kg, iv measured after 4 hrs by fluorescence imaging analysis; format: ADME, organism-based; settings: in vivo
[11] = Drug uptake in human MCF7 cell cytoplasm assessed as increase in red fluorescence at 1 uM incubated for 6 hrs by fluorescence imaging analysis; format: ADME, subcellular; settings: mcf7, 6 h
MCF7 [12] = experiment: cells; settings: Homo sapiens, MCF7, light or radiation study; remark: listed apart in the source
Description: Antiproliferative activity against human MCF7 cells assessed as inhibition of cell proliferation incubated for 48 hrs with 660 nm 0.4 W/cm2 light irradiation for 5 min at 6th hr of incubation time by MTT assay

[13] = Toxicity in female BALB/c mouse xenografted with human MCF7 cells assessed as effect on heart histology at 5 mg/kg, iv measured after 14 days by H and E staining based analysis; format: organism-based; settings: in vivo, 336 h, time 14 day
MCF7 [14] = experiment: Antitumor activity against human MCF7 cells xenografted in female BALB/c mouse model assessed as damage in tumor tissue at 5 mg/kg, iv measured after 14 days with 660 nm 0.4 W/cm2 light irradiation for 5 mins at 4 hrs of incubation time by H and E staining based analysis; format: functional, organism-based; settings: time 14.0 day
[15] = Drug uptake in female BALB/c mouse liver xenografted with human MCF7 cells at 5 mg/kg, iv measured after 4 hrs by fluorescence imaging analysis; format: ADME, organism-based; settings: in vivo
[16] = Toxicity in female BALB/c mouse xenografted with human MCF7 cells assessed as effect on spleen histology at 5 mg/kg, iv measured after 14 days by H and E staining based analysis; format: organism-based; settings: in vivo, 336 h, time 14 day
[17] = Toxicity in female BALB/c mouse xenografted with human MCF7 cells assessed as change in lymphocytes level at 5 mg/kg, iv measured after 14 days; format: organism-based; settings: in vivo, 336 h, time 14 day
[18] = Toxicity in female BALB/c mouse xenografted with human MCF7 cells assessed as change in blood urea nitrogen level at 5 mg/kg, iv measured after 14 days with 660 nm 0.4 W/cm2 light irradiation for 5 mins at 4 hrs of incubation time; format: organism-based; settings: in vivo, 336 h, time 14 day
MCF7 [19] = experiment: Photothermal effect in human MCF7 cells assessed as temperature of cell culture medium at 1 uM irradiated with 660 nm 0.4 W/cm2 light for 4 min (reference value: 26 degreeC); format: ADME, cell-based; settings: mcf7, 4 min
MCF7 [20] = experiment: cells; settings: Homo sapiens, MCF7, light or radiation study; remark: listed apart in the source
Description: Antiproliferative activity against human MCF7 cells assessed as inhibition of cell proliferation incubated for 48 hrs with 660 nm 0.4 W/cm2 light irradiation for 4 min at 6th hr of incubation time by MTT assay

MCF7 [21] = experiment: Induction of ROS generation in human MCF7 cells assessed as cell percentage with elevated ROS incubated for 6 hrs followed by irradiation with 660 nm 0.4 W/cm2 light for 5 min by DCFH-DA probe based flow cytometric analysis; format: functional; settings: dose 0.1-5 µM, time 365.0 min
[22] = Toxicity in female BALB/c mouse xenografted with human MCF7 cells assessed as change in creatinine level at 5 mg/kg, iv measured after 14 days with 660 nm 0.4 W/cm2 light irradiation for 5 mins at 4 hrs of incubation time; format: organism-based; settings: in vivo, 336 h, time 14 day
MCF7 [23] = experiment: Antitumor activity against human MCF7 cells xenografted in female BALB/c mouse model assessed as tumor growth inhibition at 5 mg/kg, iv measured after 14 days with 660 nm 0.4 W/cm2 light irradiation for 5 mins at 4 hrs of incubation time relative to control; format: functional; settings: MCF7, light or radiation study, 336 h, time 14 day, read-out: TGI
MCF7 [24] = experiment: Antiproliferative activity against human MCF7 cells assessed as inhibition of cell proliferation incubated for 48 hrs with 660 nm 0.2 to 1.5 W/cm2 light irradiation for 1 min at 6th hr of incubation time by MTT assay; format: functional, cell-based
[25] = Toxicity in female BALB/c mouse xenografted with human MCF7 cells assessed as effect on liver histology at 5 mg/kg, iv measured after 14 days by H and E staining based analysis; format: organism-based; settings: in vivo, 336 h, time 14 day
[26] = Induction of ROS generation in water assessed as decrease in ABDA absorption peak at 5 uM irradiated with 660 nm 0.4 W/cm2 light up to 5 mins by ABDA probe based UV-vis absorption spectra analysis; format: functional
MCF7 [27] = experiment: Antitumor activity against human MCF7 cells xenografted in female BALB/c mouse model assessed as tumor growth inhibition at 5 mg/kg, iv measured after 14 days relative to control; format: functional; settings: MCF7, 336 h, time 14 day, read-out: TGI
MCF7 [28] = experiment: Induction of ROS generation in human MCF7 cells assessed as cell percentage with elevated ROS at 1 uM incubated for 6 hrs followed by irradiation with 660 nm 0.4 W/cm2 light for 3 min by DCFH-DA probe based flow cytometric analysis (reference value: 0.2 %); format: functional; settings: time 363 min, 6.05 h
MCF7 [29] = experiment: Photothermal effect in human MCF7 cells assessed as temperature of cell culture medium at 1 uM irradiated with 660 nm 0.4 W/cm2 light for 5 min (reference value: 26 degreeC); format: ADME, cell-based; settings: mcf7, 5 min
[30] = Toxicity in female BALB/c mouse xenografted with human MCF7 cells assessed as effect on kidney histology at 5 mg/kg, iv measured after 14 days by H and E staining based analysis; format: organism-based; settings: in vivo, 336 h, time 14 day
in vivo [31] = settings: Sprague-Dawley, rat, po, 15 mg/kg; remark: listed apart in the source
Description: Tmax in Sprague-Dawley rat at 15 mg/kg, po administered via gavage and measured after 0.5 to 168 hrs by LC-MS analysis

MCF7 [32] = experiment: Induction of ROS generation in human MCF7 cells assessed as increase in green fluorescence at 1 uM incubated for 6 hrs followed by irradiation with 660 nm 0.4 W/cm2 light for 5 min by fluorescence imaging analysis; format: functional, cell-based; settings: time 365.0 min
in vivo [33] = settings: Sprague-Dawley, rat, iv, 5 mg/kg
Description: Volume of distribution at steady state in Sprague-Dawley rat at 5 mg/kg, iv measured after 0.5 to 168 hrs by LC-MS analysis

[34] = Toxicity in female BALB/c mouse xenografted with human MCF7 cells assessed as change in AST level at 5 mg/kg, iv measured after 14 days with 660 nm 0.4 W/cm2 light irradiation for 5 mins at 4 hrs of incubation time; format: organism-based; settings: in vivo, 336 h, time 14 day

AUC(0-inf) (in vivo [1]): 357 ng·h/mL
pIC50 (MCF7 [5]): 6.26
pIC50 (MCF7 [6]): 6.70
Drug uptake [7]: Active
Drug uptake [10]: Active
Drug uptake [11]: Active
pIC50 (MCF7 [12]): 6.89
Drug uptake [15]: Active
T (MCF7 [19]): 30.9 °C
pIC50 (MCF7 [20]): 6.80
T (MCF7 [29]): 32.5 °C
Tmax (in vivo [31]): 6 h
Vd (in vivo [33]): 108 L/kg
Compound: CCN(CC)c1ccc2nc3c4ccccc4/c(=N\CCCCCCC(=O)NCCOc4ccc(C(=O)c5c(-c6ccc(O)cc6)sc6cc(O)ccc56)cc4)cc-3sc2c1
Activity [2]: Non-toxic
Activity [3]: Non-toxic
Activity [4]: Non-toxic
Activity [8]: Non-toxic
Activity [9]: Active
Activity [13]: Non-toxic
Activity (MCF7 [14]): Active
Activity [16]: Non-toxic
Activity [17]: Non-toxic
Activity [18]: Non-toxic
Activity (MCF7 [21]): Dose-dependent-effect
Activity [22]: Non-toxic
inhibition in vivo at 5 mg/kg (MCF7 [23]): 118%
Activity (MCF7 [24]): Active
Activity [25]: Non-toxic
Activity [26]: Active
inhibition in vivo at 5 mg/kg (MCF7 [27]): 77.5%
Activity (MCF7 [28]): 15%
Activity [30]: Non-toxic
Activity (MCF7 [32]): Active
Activity [34]: Non-toxic
